According to patent publication US7563758B2, “Enzymatic production of peracids using Lactobacilli having perhydrolysis activity” (E. I. du Pont de Nemours and Company, priority 2005, dated 2009):

Key:
Assay in all cases: Minimum biocidal concentration (MBC) of peracetic acid, XTT microtiter assay
Assay type in all cases: cell-based
Settings in all cases: 5-log kill; exposure at room temperature (e.g., 10 minutes)
[1] = test system: Pseudomonas aeruginosa ATCC 15442
Source text: (§1) The method described by J. Gabrielson, et al. (J. Microbiol. Methods 50: 63-73 (2002)) can be employed for determination of the Minimum Biocidal Concentration (MBC) of peracids, or of hydrogen peroxide and enzyme substrates. The assay method is based on XTT reduction inhibition, where XTT ((2,3-bis[2-methoxy-4-nitro-5-sulfophenyl]-5-[(phenylamino)carbonyl]-2H-tetrazolium, inner salt, monosodium salt) is a redox dye that indicates microbial respiratory activity by a change in optical density (OD) measured at 490 nm or 450 nm. However, there are a variety of other methods available for testing the activity of disinfectants and antiseptics including, but not limited to viable plate counts, direct microscopic counts, dry weight, turbidity measurements, absorbance, and bioluminescence (see, for example Brock, Semour S., Disinfection, Sterilization, and Preservation, 5th edition, Lippincott Williams & Wilkins, Philadelphia, Pa., USA; 2001).
(§2) The minimum biocidal concentration (MBC) of peracid required to produce a 5-log kill of Staphylococcus aureus ATCC 6538, Salmonella cholerasuis ATCC 10708 and Pseudomonas aeruginosa ATCC 15442 was determined according to the following procedure. Cultures were grown in 5 mL LB broth (Media Tech, Inc.) for 17-24 hours at 35° C. with shaking and subsequently plated on Trypticase Soy Agar (VWR). At least 3 consecutive daily transfers were made. Plates were incubated for 20-24 hours at 35° C.±2° C. Each culture was removed from the agar surface by flooding with 5-7 mL of phosphate buffer, pH 7.2. (e.g., Butterflies or equivalent) and transferred into a sterile flask. The OD600 of the culture suspension was measured and the cell suspension was diluted in phosphate buffer to a final cell density between 1-2 E+05 and 1-2 E+06 CFU/mL, where the final cell concentration was adjusted to produce the concentration needed for the number of logs kill required. The peracetic acid solution to be tested was diluted by doubling dilutions from 600 ppm to 0.5 ppm in sterile water. Test inoculum (100 μL) was added each well of a 96-well microtiter plate, columns 1-11; column 12 was employed for a blank check using sterile dd water in place of inoculum. Decreasing concentrations of peracid solution (100 μL) was added across columns 1-10, and the plates held at room temperature for the required exposure time (e.g., 10 minutes). A Neutralization/detection plate was prepared with Letheen Broth (Difco #268110) and XTT (4 mM stock in water, 2,3-bis-[2-methoxy-4-nitro-5-sulfophenyl]-2H-tetrazolium-5-carboxanilide inner salt); 190 μL was added to each well of a fresh 96 well microtiter plate. From each well of the exposure plate, a 10 μL aliquot was transferred to the neutralization/detection plate. An OD450 reading was measured, and the plate incubated at 35° C.±2° C. for 24 hours. A second OD450 was measured, where orange color was indicative of cell growth. A suspension to test organism(s) was prepared equal to 1-2 E+04 CFU/mL. Add A 10 μL aliquot of this suspension was added to each negative well except column 12, and the plates incubated at 35° C.±2° C. for 24 hours. […] The MBC of peracetic acid generated enzymatically from triacetin by Lactobacillus plantarum ATCC BAA793 (Table 11) indicated equivalency with commercial peracetic acid.

[2] = test system: Salmonella cholerasuis ATCC 10708
Source text: as §1, §2

[3] = test system: Staphylococcus aureus ATCC 6538
Source text: as §1, §2

Which results are given for `CC(=O)OO` [L. plantarum ATCC BAA793, peracetic acid]?
MBC in ppm PAA, Pseudomonas aeruginosa ATCC 15442 [1]: 1.4 ppm PAA; MBC in ppm PAA, Salmonella cholerasuis ATCC 10708 [2]: 1.4 ppm PAA; MBC in ppm PAA, Staphylococcus aureus ATCC 6538 [3]: 1.4 ppm PAA

With `CC(=O)OO` [Sigma Lot # 07726EC, peracetic acid, reference compound] as the molecule, how does the “MBC in ppm PAA, Pseudomonas aeruginosa ATCC 15442” value [1] read?
Its value is 2.4-14 ppm PAA.

And the “MBC in ppm PAA, Staphylococcus aureus ATCC 6538” value [3]?
Its value is 1.8-2.4 ppm PAA.
